Test results published in US20220193030A1, “USE OF GINKGO TERPENE LACTONE IN PREPARING DRUG FOR PREVENTING AND/OR TREATING GUILLAIN-BARRE-STROHL SYNDROME” (CHENGDU BAIYU PHARMACEUTICAL CO., LTD., priority 2019, published 2022).
Marks after values point to notes of the source that are not given here.

Legend:
EAN model rats [1] = experiment: Pre-experimental dose study: clinical score of neurological symptoms of EAN model rats; assay type: in vivo, Lewis rats; conditions: score 0-10
Experimental: Persons skilled in the art learn that, pharmacological effect and dose are in a proportional relationship, i.e., a dose-effect relationship, only within a certain range.
(§1) For each rat in an EAN model group, an inoculum was subcutaneously injected into foot pads of hind limbs on two sides, 200 μL/rat (100 μL per side). […] For the negative control group, isopyknic normal saline was injected. For each group of animals, medicine administration was started from the first day after immunization, for 30 days in total.
(§2) The day of molding serves as the 0th day, and after that is 30 days of observation period. Observation date is represented by D plus number, D1, D2 and D3 respectively represent Observation date 1, Observation date 2 and Observation date 3, and subsequent dates are represented in the same way. Rats were weighed once every two days, and clinical symptoms of all experimental animals were scored. Within one week of a peak period (D14-D20) of disease attack of animals, weighing and clinical symptom scoring were performed every day. Score standards are as below: 0, normal; 1, a soft tail; 2, unable to lift a tail; 3, unable to automatically correct a body position; 4, ataxia; 5, mild paralysis of hind limbs; 6, moderate paralysis of hind limbs; 7, severe paralysis of hind limbs; 8, paresis of four limbs; 9, severe paresis of four limbs; and 10, death.
(§3) Data is represented by mean±standard deviation (x±SD). For scores of symptoms and scores of algesia, a non-parametric test Mann-Whitney U was used to compare differences between two groups. When P is less than 0.05, a statistic difference occurs.

IL-12 = experiment: mRNA level of IL-12 in sciatic nerve tissue of EAN model rabbits (RT-PCR); assay type: in vivo, big-ear white rabbits; conditions: 14th day after modeling, ginkgolide groups 4.5 mg/kg intragastric 2 times a day, positive control 400 mg/kg·d i.p. 5 days
Experimental: (§4) 21 experimental groups, 8 rabbits in each group.
(§5) Positive control group: rabbit immune globulin, 400 mg/kg·d, intraperitoneal injection, for 5 consecutive days
(§6) The ginkgolide groups are set the same as Test example 1, i.e., include the ginkgolide A group to the ginkgolide K group (GA group to GK group), the bilobalide group (BB group) and the ginkgolide I group to the ginkgolide XI group, 18 groups in total. Ginkgolide used in each group has the same monomeric composition and ratio as those of Test example 1, but only differs in that the ginkgolide groups all use the same medicine administration dosage, i.e., 4.5 mg/kg.
(§7) Intragastric administration, 2 times a day. Medicines were dissolved in accessories (glycerin:ethanol=6:4 V/V) to reach 5 mg/ml, and then were configured to reach corresponding concentrations by using sterilized drinking water.
(§8) EAN rabbit modeling: a certain amount of bovine sciatic nerve myelin basic protein and an isopyknic complete Freund's adjuvant were taken, shaken up by using a test tube oscillator, sufficiently mixed, and then subcutaneously injected into a back of each rabbit at multiple points.
(§9) Anesthesia was performed on the 14th day after modeling, to take sciatic nerve tissue of rabbits, and total RNA was extracted by a Trizol method. Detection was performed by a RT-PCR method. (GBS is an autoimmune disease of a nervous system. In-vivo autoreactive T cells of a patient have a cellular immunologic response to myelin P2 antigens, to form a delayed allergic reaction peripheral nerve demyelination pathological injury. This process is mainly mediated by CD4^+T cells, also named initial Th cells that may be differentiated into Th1 and Th2 after antigenic stimulation. Th1 cytokines (represented by TNF-α and IL-12) mainly enhance a cell mediated immune response, and are inflammatory cytokines; and Th2 cytokines (represented by IL-4 and IL-10) mainly participate in an antibody mediated immune response, and have an immune down-regulation and anti-inflammation effect. In GBS and ENA research, unbalance of Th1/Th2 plays an important role in disease injuries.)
(§10) Data is represented by mean±standard deviation (x±SD). Differences between two groups were compared. When P is less than 0.05, a statistic difference occurs.

IL-10 = experiment: mRNA level of IL-10 in sciatic nerve tissue of EAN model rabbits (RT-PCR); assay type: in vivo, big-ear white rabbits; conditions: 14th day after modeling, ginkgolide groups 4.5 mg/kg intragastric 2 times a day, positive control 400 mg/kg·d i.p. 5 days
Experimental: as §4, §5, §6, §7, §8, §9, §10

EAN model rats [2] = experiment: Scores of neurological symptoms (clinical score) of EAN model rats, Test Example 1; assay type: in vivo, Lewis rats; design: key: 0 = normal, 5 = mild hind-limb paralysis, 10 = death; conditions: monomers 4.5 mg/kg, combinations 6.0-13.5 mg/kg; for Clinical score D12: D12, intragastric 2 times a day; for Clinical score D14: D14, intragastric 2 times a day; for Clinical score D22: D22, intragastric 2 times a day; for Clinical score D24: D24, intragastric 2 times a day; for Clinical score D26: D26, intragastric 2 times a day; for Clinical score D20: D20, intragastric 2 times a day
Experimental: 20 experimental groups, 10 […] in each group.
as §7, §1, §2, §3

TNF-α = experiment: mRNA level of TNF-α in sciatic nerve tissue of EAN model rabbits (RT-PCR); assay type: in vivo, big-ear white rabbits; conditions: 14th day after modeling, ginkgolide groups 4.5 mg/kg intragastric 2 times a day, positive control 400 mg/kg·d i.p. 5 days
Experimental: as §4, §5, §6, §7, §8, §9, §10

IL-4 = experiment: mRNA level of IL-4 in sciatic nerve tissue of EAN model rabbits (RT-PCR); assay type: in vivo, big-ear white rabbits; conditions: 14th day after modeling, ginkgolide groups 4.5 mg/kg intragastric 2 times a day, positive control 400 mg/kg·d i.p. 5 days
Experimental: as §4, §5, §6, §7, §8, §9, §10

EAN model rats [3] = experiment: Test on algesia of ankle joint (pain reaction score) of EAN model rats; assay type: in vivo, Lewis rats; conditions: ankle dorsiflexion, score 0-5
Experimental: as §7, §1
Near a peak period of disease attack of EAN model animals, a test on algesia of ankle joints was performed on EAN model animals and adjuvant control animals, and rats in a rest state were forced to bend hind legs towards foot soles (dorsiflexion). For each side, 5 tests were made, at an interval of at least 5 s. For each time of dorsiflexion, if rats screamed or obviously withdrew paws, 1 score was counted. For each side, a total score is 0-5.
as §3

## ginkgolide C
EAN model rats [1]; 2.0 mg/kg
  Clinical score (D17): 6.90 ± 0.88
EAN model rats [1]; 4.5 mg/kg
  Clinical score (D17): 6.10 ± 0.57*^Δ
EAN model rats [1]; 15 mg/kg
  Clinical score (D17): 6.00 ± 0.67*^Δ
IL-12
  Cytokines IL-12 (mRNA level, sciatic nerve tissue): 6.009 ± 0.357
IL-10
  Cytokines IL-10 (mRNA level, sciatic nerve tissue): 0.561 ± 0.090
EAN model rats [2]
  Clinical score D12: 4.4 ± 0.7
  Clinical score D14: 5.2 ± 0.8
  Clinical score D22: 4.4 ± 0.5
  Clinical score D24: 3.8 ± 0.8
  Clinical score D26: 3.1 ± 0.6
TNF-α
  Cytokines TNF-α (mRNA level, sciatic nerve tissue): 4.548 ± 0.154
IL-4
  Cytokines IL-4 (mRNA level, sciatic nerve tissue): 0.585 ± 0.053
EAN model rats [3]
  Pain reaction score (D18): 1.9 ± 0.88

## C[C@@H]1C(=O)O[C@@H]2[C@H]1[C@@]13OC4OC(=O)[C@H](O)C45[C@H](C(C)(C)C)[C@@H](O)C(OC1=O)[C@]53[C@H]2O (stereo partly drawn) [Ginkgolide M, ginkgolide M]
EAN model rats [1]; 2.0 mg/kg
  Clinical score (D17): 7.10 ± 0.32
EAN model rats [1]; 4.5 mg/kg
  Clinical score (D17): 6.40 ± 0.97*^Δ
EAN model rats [1]; 15 mg/kg
  Clinical score (D17): 6.50 ± 0.71*^Δ
IL-12
  Cytokines IL-12 (mRNA level, sciatic nerve tissue): 6.260 ± 0.411
IL-10
  Cytokines IL-10 (mRNA level, sciatic nerve tissue): 0.550 ± 0.061
EAN model rats [2]
  Clinical score D12: 4.5 ± 0.7
  Clinical score D14: 5.6 ± 0.5
  Clinical score D20: 5.5 ± 0.5
  Clinical score D22: 4.6 ± 0.5
  Clinical score D24: 4.0 ± 0.7
  Clinical score D26: 3.2 ± 0.6
TNF-α
  Cytokines TNF-α (mRNA level, sciatic nerve tissue): 4.797 ± 0.147
IL-4
  Cytokines IL-4 (mRNA level, sciatic nerve tissue): 0.558 ± 0.050
EAN model rats [3]
  Pain reaction score (D18): 1.4 ± 0.52

## CC1=C2[C@@H](OC1=O)[C@H](O)[C@]13[C@H]4C[C@@H](C(C)(C)C)[C@]15[C@@H](OC(=O)[C@@H]5O)O[C@@]23C(=O)O4 [Ginkgolide K, ginkgolide K]
EAN model rats [1]; 2.0 mg/kg
  Clinical score (D17): 7.20 ± 0.42
EAN model rats [1]; 4.5 mg/kg
  Clinical score (D17): 6.50 ± 0.85*^Δ
EAN model rats [1]; 15 mg/kg
  Clinical score (D17): 6.70 ± 0.82*^Δ
IL-12
  Cytokines IL-12 (mRNA level, sciatic nerve tissue): 6.412 ± 0.169
IL-10
  Cytokines IL-10 (mRNA level, sciatic nerve tissue): 0.524 ± 0.026
EAN model rats [2]
  Clinical score D12: 4.5 ± 0.7
  Clinical score D14: 5.6 ± 0.5
  Clinical score D20: 5.5 ± 0.5
  Clinical score D22: 4.5 ± 0.5
  Clinical score D24: 3.9 ± 0.7
  Clinical score D26: 3.1 ± 0.6
TNF-α
  Cytokines TNF-α (mRNA level, sciatic nerve tissue): 4.739 ± 0.094
IL-4
  Cytokines IL-4 (mRNA level, sciatic nerve tissue): 0.557 ± 0.046
EAN model rats [3]
  Pain reaction score (D18): 1.2 ± 0.63

## C[C@@H]1C(=O)O[C@H]2C[C@@]34[C@H]5C[C@@H](C(C)(C)C)[C@]36[C@@H](OC(=O)[C@@H]6O)O[C@@]4(C(=O)O5)[C@]21O [Ginkgolide A, ginkgolide A]
EAN model rats [1]; 2.0 mg/kg
  Clinical score (D17): 7.00 ± 0.82
EAN model rats [1]; 4.5 mg/kg
  Clinical score (D17): 6.10 ± 0.74*^Δ
EAN model rats [1]; 15 mg/kg
  Clinical score (D17): 6.00 ± 1.25*^Δ
IL-12
  Cytokines IL-12 (mRNA level, sciatic nerve tissue): 5.977 ± 0.141
IL-10
  Cytokines IL-10 (mRNA level, sciatic nerve tissue): 0.584 ± 0.039
EAN model rats [2]
  Clinical score D12: 4.4 ± 0.5
  Clinical score D14: 5.3 ± 0.5
  Clinical score D22: 4.4 ± 0.5
  Clinical score D24: 3.7 ± 0.8
  Clinical score D26: 3.1 ± 0.6
TNF-α
  Cytokines TNF-α (mRNA level, sciatic nerve tissue): 4.693 ± 0.115
IL-4
  Cytokines IL-4 (mRNA level, sciatic nerve tissue): 0.569 ± 0.048
EAN model rats [3]
  Pain reaction score (D18): 2.0 ± 0.67

## CC1C(=O)OC2C(O)C34C5CC(C(C)(C)C)C36C(OC(=O)C6O)OC4(C(=O)O5)C12O (stereo not drawn) [Ginkgolide B, ginkgolide B]
EAN model rats [1]; 2.0 mg/kg
  Clinical score (D17): 6.10 ± 1.10
EAN model rats [1]; 4.5 mg/kg
  Clinical score (D17): 5.10 ± 0.57*^Δ
EAN model rats [1]; 15 mg/kg
  Clinical score (D17): 5.20 ± 0.63*^Δ
IL-12
  Cytokines IL-12 (mRNA level, sciatic nerve tissue): 3.928 ± 0.409
IL-10
  Cytokines IL-10 (mRNA level, sciatic nerve tissue): 0.813 ± 0.055
TNF-α
  Cytokines TNF-α (mRNA level, sciatic nerve tissue): 2.978 ± 0.102
IL-4
  Cytokines IL-4 (mRNA level, sciatic nerve tissue): 0.769 ± 0.041
EAN model rats [3]
  Pain reaction score (D18): 3.0 ± 0.67

## CC(C)(C)[C@]1(O)CC2OC(=O)CC23C(=O)OC2OC(=O)[C@H](O)C231 (stereo partly drawn) [Bilobalide, bilobalide]
EAN model rats [1]; 2.0 mg/kg
  Clinical score (D17): 5.70 ± 0.67
EAN model rats [1]; 4.5 mg/kg
  Clinical score (D17): 4.80 ± 0.63*^Δ
EAN model rats [1]; 15 mg/kg
  Clinical score (D17): 4.90 ± 0.88*^Δ
IL-12
  Cytokines IL-12 (mRNA level, sciatic nerve tissue): 4.087 ± 0.275
IL-10
  Cytokines IL-10 (mRNA level, sciatic nerve tissue): 0.783 ± 0.128
TNF-α
  Cytokines TNF-α (mRNA level, sciatic nerve tissue): 3.054 ± 0.182
IL-4
  Cytokines IL-4 (mRNA level, sciatic nerve tissue): 0.792 ± 0.065
EAN model rats [3]
  Pain reaction score (D18): 2.9 ± 0.74

## ginkgolide J
EAN model rats [1]; 2.0 mg/kg
  Clinical score (D17): 7.10 ± 0.57
EAN model rats [1]; 4.5 mg/kg
  Clinical score (D17): 6.40 ± 0.84*^Δ
EAN model rats [1]; 15 mg/kg
  Clinical score (D17): 6.30 ± 0.82*^Δ
IL-12
  Cytokines IL-12 (mRNA level, sciatic nerve tissue): 6.211 ± 0.489
IL-10
  Cytokines IL-10 (mRNA level, sciatic nerve tissue): 0.501 ± 0.037
EAN model rats [2]
  Clinical score D12: 4.4 ± 0.7
  Clinical score D14: 5.5 ± 0.5
  Clinical score D20: 5.6 ± 0.5
  Clinical score D22: 4.6 ± 0.5
  Clinical score D24: 4.0 ± 0.7
  Clinical score D26: 3.2 ± 0.6
EAN model rats [2]; D16, intragastric 2 times a day
  Clinical score D16: 6.5 ± 0.5
EAN model rats [2]; D17, intragastric 2 times a day
  Clinical score (D17): 7.4 ± 0.5
EAN model rats [2]; D19, intragastric 2 times a day
  Clinical score D19: 6.2 ± 0.6
TNF-α
  Cytokines TNF-α (mRNA level, sciatic nerve tissue): 4.810 ± 0.070
IL-4
  Cytokines IL-4 (mRNA level, sciatic nerve tissue): 0.551 ± 0.050
EAN model rats [3]
  Pain reaction score (D18): 1.3 ± 0.67
